From US20060217394A1, “Treatment of anhedonia” (priority 2005, published 2006)

Assays:
[1] = system: patients receiving SSRI or SNRI treatment for major depressive disorder; assay: Retrospective review of patients receiving SSRI or SNRI treatment for major depressive disorder: late-appearing anhedonic symptoms; type: in vivo; conditions: individual patient
Description: Although in the majority of so afflicted patients the diagnosis will be apparent during this interval, it should be understood that iatrogenic anhedonia may appear earlier or later during any course of treatment with medications that increase serotonin transmission efficiency with or without similar increases in the efficiency and availability of norepinephrine. The rather substantial number of patients suffering from the condition over diverse population samples may be postulated to be due to a genetic predisposition for the condition.
Patients in whom SSRIs produced excellent remission of major depressive disorder for the period shown in the 5th column
The result of decreased dopaminergic efficiency and/or availability may be dysphoric interference with the ability to experience the normal range of positive affect over the range from mild interest to pleasant excitement, and from ordinary contentment to great joy. Such decreased dopaminergic transmission efficiency may be caused by agents that block the serotonin transporter alone, and/or those that block both the serotonin transporter and the norepinephrine transporter, and/or those that increase the synthesis and release of both norepinephrine and serotonin and any mechanism whereby the efficiency of serotonergic transmission is enhanced.

[2] = system: patients afflicted with anhedonia; assay: Treatment of iatrogenic anhedonia in patients with agents enhancing dopaminergic availability and/or efficiency; type: in vivo; conditions: about 2.5 mg prn, no more than once daily, on as few as two to five days per week
[3] = period for which the SSRI produced excellent remission of major depressive disorder

With `CN(C)CCCC1(c2ccc(F)cc2)OCc2cc(C#N)ccc21` (stereo not drawn) [citalopram] as the compound, how does the “SSRI duration before new symptoms” value [1, 3] read?
The value was 6 months.

With `CNCCC(Oc1ccc(C(F)(F)F)cc1)c1ccccc1` (stereo not drawn) [fluoxetine] as the compound, how does the “SSRI duration before new symptoms” value [1, 3] read?
The value was 2 years.

What about the “SSRI duration before new symptoms” value ([1]; period of excellent remission, some patients 10 years intermittent (stopped Rx each time anomie experienced)) of the same compound?
The value was 1 year.

With `COC(=O)[C@H](c1ccccc1)[C@H]1CCCCN1` [dexmethylphenidate] as the compound, how does the improvement of anhedonia [2] read?
Its improvement of anhedonia is “Satisfactory and ongoing improvement”.

`Fc1ccc([C@@H]2CCNC[C@H]2COc2ccc3c(c2)OCO3)cc1` [paroxetine] was tested. Which “SSRI duration before new symptoms” value [1, 3] did it give?
Its value is 10 years.

`CN[C@H]1CC[C@@H](c2ccc(Cl)c(Cl)c2)c2ccccc21` [sertraline] was tested. Which “SSRI duration before new symptoms” value [1, 3] did it give?
Its value is 2 years.
